In data set [1] the test system is H9c2. Briefly: Cytotoxicity against rat H9c2 cells assessed as reduction in cell viability at 50 uM measured after 24 hrs by CCK8 assay. The class given is cell-based. Particulars: h9c2, 24 h.
The test system of data set [2] is H9c2. Briefly: Cardioprotective activity against rat H9c2 cells assessed as reduction in H2O2-induced cell death preincubated for 24 hrs followed by H2O2 stimulation and measured after 1 hr by CCK8 assay. The class given is functional, cell-based. In general terms: Tetrazolium assays rely on reduction of a dye to a coloured formazan, in cell work by metabolically active cells.

Data set [3] has as its system H9c2. The data set is described as follows: Cardioprotective activity against rat H9c2 cells assessed as reduction in H2O2-induced cell death at 50 uM preincubated for 24 hrs followed by H2O2 stimulation and measured after 1 hr by CCK8 assay. The class given is functional, cell-based. The note with it: time 25.0 hrs.
For data set [4], the system named is H9c2. The data set is described as follows: Activation of AMPKalpha in H2O2-induced rat H9c2 cells assessed as reduction in AKT expression at 2 uM preincubated for 24 hrs followed by H2O2 stimulation and measured after 1 hr by Western blot analysis. The note with it: filed as activator, time 25.0 hrs. Background: Immunoblotting shows a protein as a band on a membrane.

Data set [5] relates to H9c2. The data set is described as follows: Cardioprotective activity in H2O2-induced mitochondrial membrane potential loss in rat H9c2 cells assessed as increase in MMP level at 2 uM preincubated for 24 hrs followed by H2O2 stimulation and measured after 1 hr by JC1 staining based flow cytometry. The class given is functional, cell-based. Particulars: time 25.0 hrs. (In general: A flow cytometer gives signals particle by particle.)

Data set [6] concerns H9c2. The data set is described as follows: Activation of AMPKalpha in H2O2-induced rat H9c2 cells assessed as reduction in mTOR expression at 2 uM preincubated for 24 hrs followed by H2O2 stimulation and measured after 1 hr by Western blot analysis. The note with it: filed as activator, time 25.0 hrs.
In data set [7] the test system is H9c2. The data set is described as follows: Activation of AMPKalpha in H2O2-induced rat H9c2 cells assessed as increase in AMPKalpha phosphorylation at […] residues at 2 uM preincubated for 24 hrs followed by H2O2 stimulation and measured after 1 hr by Western blot analysis. The note with it: filed as activator, time 25.0 hrs.
The subject of data set [8] is H9c2. The data set is described as follows: Cardioprotective activity against rat H9c2 cells assessed as reduction in H2O2-induced ROS generation at 2 uM preincubated for 24 hrs followed by H2O2 stimulation and measured after 1 hr by DCFH-DA staining based flow cytometry. Format: functional, cell-based. The note with it: time 25.0 hrs.
Data set [9] deals with H9c2. The data set is described as follows: Cardioprotective activity against rat H9c2 cells assessed as reduction in H2O2-induced apoptosis by measuring down regulation of Bax expression at 2 uM preincubated for 24 hrs followed by H2O2 stimulation and measured after 1 hr by Western blot analysis. Format: functional, cell-based. Particulars: time 25.0 hrs.
The subject of data set [10] is H9c2. The data set is described as follows: Cardioprotective activity against rat H9c2 cells assessed as reduction in H2O2-induced apoptosis by measuring up regulation of Bcl2 expression at 2 uM preincubated for 24 hrs followed by H2O2 stimulation and measured after 1 hr by Western blot analysis. Format: functional, cell-based. Particulars: time 25.0 hrs.

Structures are written as SMILES. Active and inactive are the calls of the source. The calls are words filed in the database; no cut-off is given here.

As a reminder, the IC50 is the concentration at which inhibition is half-maximal. Turning to `COC(=O)c1ccccc1NC(=O)CC(C)C(=O)O` (stereo not drawn), the Activity entry with H9c2 [1] was “Non-Toxic”. For the same compound, in the data set with H9c2 [2], the IC50 is 1900 nM.
As to `CCN1C2OC(=O)[C@]3(CO)CC[C@H](OC)C24[C@@H]2C[C@@H]5[C@H](OC)[C@@H]2[C@](O)(C[C@@H]5OC)[C@]1(O)[C@@H](OC)[C@@H]43`, the outcome in the data set with H9c2 [3] was Active. Further, in the data set on H9c2 [1], the Activity result is “Non-Toxic”.
As for `CO[C@H]1[C@@H]2C[C@@H]3[C@H]1[C@](O)(C[C@@H]2OC)[C@@]1(O)C2[N+]([O-])=C[C@]4(CO)CC[C@H](OC)[C@@]23[C@@H]4[C@@H]1OC`, the result in the data set on H9c2 [3] was inactive.
Take `CCN1C(=O)[C@]2(CO)CC[C@H](OC)[C@]34C1O[C@@](O)([C@@H](OC)[C@H]23)[C@@]1(O)C[C@H](OC)[C@@H]2C[C@@H]4[C@@H]1[C@H]2OC`: the result in the data set with H9c2 [3] was Active. Further, the Activity result in the data set on H9c2 [1] was “Non-Toxic”.
`CO[C@H]1[C@@H]2C[C@@H]3[C@H]1[C@](O)(C[C@@H]2OC)C(=O)[C@@H](OC)[C@@H]1[C@@]2(COC(C)=O)CC[C@H](OC)[C@@]31C=[N+]([O-])C2`: the result with H9c2 [3] was inactive.
With `CCN1C(=O)[C@]2(CO)CC[C@H](OC)[C@]34C1[C@](O)([C@@H](OC)[C@H]23)[C@@]1(O)C[C@H](OC)[C@H]2C[C@@H]4[C@@H]1[C@H]2OC`, the result with H9c2 [3], in the data set with H9c2 [4], in the data set on H9c2 [5], in the data set with H9c2 [6], with H9c2 [7] and in the data set with H9c2 [8] was Active. For the same compound, the outcome in the data set with H9c2 [9] and in the data set with H9c2 [10] was Active. For the same compound, the Activity result with H9c2 [1] is “Non-Toxic”. In addition, the IC50 in the data set with H9c2 [2] came to 1880 nM.

Source of the values: ChEMBL document CHEMBL4706711, “Alkaloids of Delphinium grandiflorum and their implication to HO-induced cardiomyocytes injury” (Bioorg Med Chem, 2021).
